Assay results as given in ChEMBL document CHEMBL1671733, “Clinical evaluation of a dried blood spot assay for atazanavir” (Antimicrob Agents Chemother, 2010).

Experiments:
Assay type in all cases: ADME, organism-based
[1] = Cmin in HIV infected patient at 300 mg qd measured after 16.60 hrs by plasma based assay using HPLC; settings: human, read-out: Cmin
[2] = Plasma concentration in HIV infected patient at 400 mg qd measured after 13.06 hrs by plasma based assay using HPLC; settings: human
Homo sapiens [3] = species on record: Homo sapiens; test: Plasma concentration in HIV infected patient with HIV RNA of >50 copies/ml by dried blood spot assay using reversed-phase ultrahigh-performance liquid chromatography; settings: in vivo
[4] = Plasma concentration in HIV infected patient at 300 mg qd measured after 16.60 hrs by plasma based assay using HPLC; settings: human
Homo sapiens [5] = species on record: Homo sapiens; test: Plasma concentration in HIV infected patient with HIV RNA of <50 copies/ml by dried blood spot assay using reversed-phase ultrahigh-performance liquid chromatography; settings: in vivo
[6] = Cmax in HIV infected patient at 300 mg qd measured after 16.60 hrs by plasma based assay using HPLC; parameters: dose 300 mg; settings: human
[7] = Cmin in HIV infected patient at 400 mg qd measured after 13.06 hrs by plasma based assay using HPLC; settings: human, read-out: Cmin
[8] = Cmax in HIV infected patient at 400 mg qd measured after 13.06 hrs by plasma based assay using HPLC; parameters: dose 400 mg; settings: human

concentration at 16.6 h [1]: 196 ng/mL
concentration at 13.06 h [2]: 465 ng/mL
Cp (Homo sapiens [3]): 543 ng/mL
concentration at 16.6 h [4]: 1630 ng/mL
Cp (Homo sapiens [5]): 1582 ng/mL
Cmax [6]: 7220 ng/mL
concentration at 13.06 h [7]: 342 ng/mL
Cmax [8]: 787 ng/mL
Structure (SMILES): COC(=O)N[C@H](C(=O)N[C@@H](Cc1ccccc1)[C@@H](O)CN(Cc1ccc(-c2ccccn2)cc1)NC(=O)[C@@H](NC(=O)OC)C(C)(C)C)C(C)(C)C [ATAZANAVIR]
